The conditions of series [1]: free base; background statement; cited from earlier work.
Series [2] is described as follows: Osmolality of the product. It is filed as physicochemical.
The nature of series [3]: Solubility in water (general statements). In kind it is physicochemical. Particulars: general statement.
Series [4] is described as follows: Titration with sodium hydroxide. It is filed as physicochemical. The procedure:
561 mg amonafide dihydrochloride (1.57 mmol) was dissolved in 10 mL water to yield a clear red solution with pH at 1.2. With constant stirring, 1N NaOH solution was added. Solution remained clear until pH greater than 6.7. As shown in the titration curve below, 3.3 mmol NaOH was used to neutralize amonafide dihydrochloride in the solution. The calculated mol ratio of amonafide to NaOH was 1:2. [drawing]

Series [5] can be described thus: physchem. It is filed as physicochemical. The procedure:
Precipitation occurs as pH increases above 6.5. Solubility is about 1 mg/mL at pH 9 and 0.05 mg/mL at pH 11.

Structures can show the parent of a compound that is named as a salt. Bounds are passed on as bounds.

In the case of `CN(C)CCN1C(=O)c2cccc3cc(N)cc(c23)C1=O` [Amonafide, 5-amino-2-[(dimethylamine)ethyl]-1H-benz[de-]isoquinoline-1,3-(2H)-dione], the solubility in water entry in series [1] is recorded as “very poorly soluble”.
Take `CN(C)CCN1C(=O)c2cccc3cc(N)cc(c23)C1=O` [amonafide dihydrochloride]: the osmolality result in series [2] was “equivalent to 0.9% sodium chloride solution”. Further, the “solubility in water compared to monohydrochloride salt” value in series [3] is listed as “more soluble in water”. For the same molecule, the pH of solution in series [4] (561 mg (1.57 mmol) dissolved in 10 mL water, clear red solution) amounted to 1.2. Moreover, the “pH until which solution remained clear” value in series [4] (1N NaOH added with constant stirring) was “greater than 6.7”. In series [5] (as pH increases), the “pH above which precipitation occurs” value was “above 6.5”. The solubility is over 250000 µg/mL in series [5] (pH 1, water); about 1000 µg/mL in series [5] (pH 9, aqueous buffer); 50 µg/mL in series [5] (pH 11, aqueous buffer).

Broadly, the solubility is the dissolved amount per volume that the medium holds. Lower therefore signals a poorly soluble substance.
